Data from US5647363A, “Ambulatory clearance function monitor” (The General Hospital Corporation, priority 1994, dated 1997).

Legend:
[1] = Clearance rate constant of labelled tracer by external ambulatory renal monitor; format: in vivo; settings: patient in intensive care unit, initial (moderately decreased renal function)
Experimental: A more detailed description of an example of a renal function monitor follows, in which clearance of a radiolabelled injected substance was measured according to the detected radiation according to the invention. The performance of the apparatus was tested by comparison with results obtained using standard techniques.
Data collection was performed using a battery-operated, pocket-size lightweight data logger having 32K total RAM (Tattletale, Model V, Onset Computer Corp., N. Falmouth, Mass.). The detector was a 16 mm diameter×2 mm thick cadmium-telluride (Cd-Te) detector (Radiation Monitoring Devices, Watertown, Mass.) connected to a preamplifier and a lower level discriminator. […]
The usual diet was not altered. Weight and height were measured soon after arrival at the treatment facility. […]
To determine the value of the invention for monitoring of renal function, two patients at risk of ARF with serum creatinine ≥2 mg/dl were monitored before, during and after an angiographic procedure. […] The rate constant, as measured according to the invention, decreased in this patient from 2.85×10^-3 min^-1 to 0.2×10^-3 min^-1; and the serum creatinine in this patient increased from 2.4 to 2.8 mg/dl over the succeeding 12 hours.
The rate of clearance of ^99m Tc-DTPA was also monitored in a patient in an intensive care unit. […]

[2] = human, in vivo; cited from earlier work

O=C([O-])CN(CCN(CC(=O)[O-])CC(=O)[O-])CCN(CC(=O)[O-])CC(=O)[O-].[99Tc+4] [^99m Tc-DTPA]
rate constant [1]: 0.0035 min⁻¹
rate constant (Normal) [2]: 0.0065 min⁻¹
